Where two headings read alike, the source gives them in different places.
Experiments:
Type in all cases: cell-based, human
[1] = test system: HTT mRNA; assay: Splicing RT-qPCR assay, HTT canonical (CJ) and alternative (AJ) junction mRNA; settings: Homo sapiens, A673 or K562 cells, 24 hours compound treatment; for IC50: 24 h, read-out: HTT CJ (IC50, decrease in canonical junction mRNA); for AC50: read-out: HTT AJ (AC50, increase in alternative junction mRNA)
How it was run: (§1)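 Compound-induced exon inclusion is tracked as an increase in AJ transcript alongside the CJ transcript. Cells (A673 normalized to PPIA; K562 to GAPDH or GUSB) are dosed 24 h with a serial dilution topping at 10 uM, ≤0.25% DMSO, then lysed and analysed by RT-qPCR in at least duplicate.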

[2] = test system: MYB mRNA; assay: Splicing RT-qPCR assay, MYB canonical (CJ) and alternative (AJ) junction mRNA; settings: Homo sapiens; for AC50: read-out: MYB AJ (AC50, increase in alternative junction mRNA)
How it was run: as §1

[3] = test system: SMN2 mRNA; assay: Splicing RT-qPCR gene panel, SMN2 canonical junction (CJ) mRNA; settings: Homo sapiens, Tables 4A/4B, read-out: SMN2 (IC50, decrease in CJ mRNA, gene panel)
Method: (§2) Compounds described herein were used to modulate RNA transcript abundance in cells. The expression of a target mRNA was measured by detecting the formation of an exon-exon junction in the canonical transcript (CJ). A compound mediated exon-inclusion event was detected by observing an increase in formation of a new junction with an alternative exon (AJ). Real-time qPCR assays were used to detect these splicing switches and interrogate the potency of various compounds towards different target genes. A high-throughput real time quantitative PCR (RT-qPCR) assay was developed to measure these two isoforms of the mRNA (CJ and AJ) for exemplary genes, such as HTT, SMN2, and MYB, together with a control housekeeping gene, GAPDH or GUSB or PPIA, used for normalization. Briefly, the A673 or K562 cell line was treated with various compounds described herein (e.g., compounds of Formula (I)). After treatment, the levels of the HTT, MYB, or SMN2 mRNA targets were determined from each sample of cell lysate by cDNA synthesis followed by qPCR.
(§3) The A673 cell line was cultured in DMEM with 10% FBS. Cells were diluted with full growth media and plated in a 96-well plate (15,000 cells in 100 ul media per well). The plate was incubated at 37° C. with 5% CO2 for 24 hours to allow cells to adhere. An 11-point 3-fold serial dilution of the compounds was made in DMSO then diluted in media in an intermediate plate. Compounds were transferred from the intermediate plate to the cell plate with the top dose at a final concentration of 10 uM in the well. Final DMSO concentration was kept at or below 0.25%. The cell plate was returned to the incubator at 37° C. with 5% CO2 for an additional 24 hours.
(§4) The K562 cell line was cultured in IMDM with 10% FBS. For K562, cells were diluted with full growth media and plated in either a 96-well plate (50,000 cells in 50 uL media per well) or a 384-well plate (8,000-40,000 cells in 45 uL media per well). An 11-point 3-fold serial dilution of the compounds were made in DMSO then diluted in media in an intermediate plate. Compound was transferred from the intermediate plate to the cell plate with the top dose at a final concentration of 10 uM in the well. Final DMSO concentration was kept at or below 0.25%. Final volume was 100 uL for 96-well plate and 50 uL for 384-well plate. The cell plate was then placed in an incubator at 37° C. with 5% CO2 for 24 hours.
(§5) The cells were then gently washed with 50 uL-100 uL cold PBS before proceeding to addition of lysis buffer. 30 uL-50 uL of room temperature lysis buffer with DNAse I (and optionally RNAsin) was added to each well. Cells were shaken/mixed thoroughly at room temperature for 5-10 minutes for lysis to take place and then 3 uL-5 uL of room temperature stop solution was added and wells were shaken/mixed again. After 2-5 minutes, the cell lysate plate was transferred to ice for RT-qPCR reaction setup. The lysates could also be frozen at −80° C. for later use.
(§6) In some cases, a direct lysis buffer was used. An appropriate volume of 3× lysis buffer (10 mM Tris, 150 mM NaCl, 1.5%-2.5% Igepal and 0.1-1 U/uL RNAsin, pH 7.4) was directly added to either K562 or A673 cells in media and mixed by pipetting 3 times. The plates were then incubated at room temperature with shaking/rocking for 20-50 minutes to allow for lysis to take place. After this time, the cell lysate plate was transferred to ice to set up for the RT-qPCR reactions. The lysates could also be frozen at −80° C. for later use.
(§7) To set up 10 uL RT-qPCR reactions, cell lysates were transferred to 384-well qPCR plates containing the master mix according to the table below. The plates were sealed, gently vortexed, and spun down before the run. The volumes were adjusted accordingly in some instances where the reaction was carried in 20 μL. The table below summarizes the components of the RT-qPCR reactions:
(§8) The RT-qPCR reaction was performed using a QuantStudio (ThermoFisher) under the following fast cycling conditions. […]

[4] = test system: Target C mRNA; assay: Splicing RT-qPCR gene panel, Target C canonical junction (CJ) mRNA; settings: Homo sapiens, Tables 4A/4B, read-out: Target C (IC50, decrease in CJ mRNA, gene panel)
Method: as §2, §3, §4, §5, §6, §7, §8

[5] = test system: HTT mRNA; assay: Splicing RT-qPCR gene panel, HTT canonical junction (CJ) mRNA; settings: Homo sapiens, Tables 4A/4B, read-out: HTT (IC50, decrease in CJ mRNA, gene panel)
Method: as §2, §3, §4, §5, §6, §7, §8

[6] = 24 h, A673 or K562 cells, 24 hours compound treatment, RT-qPCR
[7] = 24 h, A673 or K562 cells, 24 hours compound treatment, RT-qPCR, read-out: MYB CJ (IC50, decrease in canonical junction mRNA)
[8] = Tables 4A/4B, canonical junction qPCR panel, read-out: MYB (IC50, decrease in CJ mRNA, gene panel)

| Compound | IC50 [1] | AC50 [1] | AC50 [2, 6] | IC50 [2, 7] | IC50 [2, 8] | IC50 [3] | IC50 [4] | IC50 [5] |
| --- | --- | --- | --- | --- | --- | --- | --- | --- |
| Cc1cn2cc(NC(=O)c3c(F)cc(N4CCC(N(C)C)C4)c4cn(C)nc34)cc(F)c2n1 (stereo in doubt) [Compound 464, 4-[(3S)-3-(dimethylamino)pyrrolidin-1-yl]-6-fluoro-N-{8-fluoro-2-methylimidazo[1,2-a]pyridin-6-yl}-2-methylindazole-7-carboxamide] | 100 to 1000 nM | 100 to 1000 nM | < 100 nM | < 100 nM | < 100 nM | < 100 nM | 1 to 10 µM | 100 to 1000 nM |
| Cc1cn2cc(NC(=O)c3ccc(C4CCNCC4)c4c3OCC4)cc(F)c2n1 [Compound 188] | > 10000 nM | > 10000 nM | 1000 to 10000 nM | 1000 to 10000 nM | 1000 to 10000 nM | 100 to 1000 nM | 1 to 10 µM | > 10000 nM |
| Cc1cn2cc(NC(=O)c3ccc(N(C)C4CC(C)(C)NC(C)(C)C4)c4cc(C)oc34)cc(F)c2n1 [Compound 201] | > 10000 nM | > 10000 nM | > 10000 nM | > 10000 nM | > 10000 nM | 1000 to 10000 nM | > 10 µM | > 10000 nM |
| Cc1cn2cc(NC(=O)c3ccc(N4CCC(N(C)C)C4)c4cc(C)oc34)cc(F)c2n1 (stereo not shown) [Compound 202] | > 10000 nM | 1000 to 10000 nM | < 100 nM | 100 to 1000 nM | 100 to 1000 nM | < 100 nM | > 10 µM | > 10000 nM |
| Cc1cn2cc(NC(=O)c3ccc(N4CCC(N5CCCC5)C4)c4cc(C)oc34)cc(F)c2n1 (stereo not shown) [Compound 204] | 1000 to 10000 nM | 1000 to 10000 nM | 100 to 1000 nM | 100 to 1000 nM | 100 to 1000 nM | < 100 nM | 1 to 10 µM | 1000 to 10000 nM |
| Cc1cn2cc(NC(=O)c3ccc(N4CC5(CNC5)C4)c4cc(C)oc34)cc(F)c2n1 [Compound 205] | 100 to 1000 nM | 1000 to 10000 nM | 100 to 1000 nM | 100 to 1000 nM | 100 to 1000 nM | < 100 nM | 1 to 10 µM | 100 to 1000 nM |
| Cc1cn2cc(NC(=O)c3ccc(N4CC5(CN(C)C5)C4)c4cc(C)oc34)cc(F)c2n1 [Compound 206] | 1000 to 10000 nM | 1000 to 10000 nM | 100 to 1000 nM | 100 to 1000 nM | 100 to 1000 nM | < 100 nM | > 10 µM | 1000 to 10000 nM |
| Cc1cn2cc(NC(=O)c3ccc(C4CCN(C)CC4)c4cn(C)nc34)cc(F)c2n1 [Compound 209] | 100 to 1000 nM | 100 to 1000 nM | < 100 nM | < 100 nM | < 100 nM | 1000 to 10000 nM | 0.1 to 1 µM | 100 to 1000 nM |
| CCN1CCC(c2ccc(C(=O)Nc3cc(F)c4nc(C)cn4c3)c3nn(C)cc23)CC1 [Compound 210] | 100 to 1000 nM | 100 to 1000 nM | < 100 nM | < 100 nM | < 100 nM | < 100 nM | 1 to 10 µM | 100 to 1000 nM |
| Cc1cn2cc(NC(=O)c3ccc(C4CC(C)(C)NC(C)(C)C4)c4cn(C)nc34)cc(F)c2n1 [Compound 212] | 1000 to 10000 nM | > 10000 nM | 1000 to 10000 nM | 100 to 1000 nM | 100 to 1000 nM | 100 to 1000 nM | > 10 µM | 1000 to 10000 nM |
| Cc1cc2c(N3CCNCC3)ccc(C(=O)Nc3cc(F)c4nc(C)sc4c3)c2o1 [Compound 219] | > 10000 nM | > 10000 nM | 1000 to 10000 nM | 100 to 1000 nM | 100 to 1000 nM | 100 to 1000 nM | > 10 µM | > 10000 nM |
| Cc1cn2cc(NC(=O)c3ccc(N4CCN(C)C(C)C4)c4cn(C)nc34)cc(F)c2n1 (stereo not shown) [Compound 229] | 100 to 1000 nM | 100 to 1000 nM | < 100 nM | < 100 nM | < 100 nM | < 100 nM | 1 to 10 µM | 100 to 1000 nM |
| Cn1cc2ccc(NC(=O)c3ccc(N4CCNCC4)c4cn(C)nc34)cc2n1 [Compound 230] | > 10000 nM | > 10000 nM | > 10000 nM | > 10000 nM | > 10000 nM | > 10000 nM | > 10 µM | > 10000 nM |
| Cn1cc2c(F)cc(NC(=O)c3ccc(N4CCNCC4)c4cn(C)nc34)cc2n1 [Compound 231] | > 10000 nM | > 10000 nM | > 10000 nM | > 10000 nM | > 10000 nM | > 10000 nM | > 10 µM | > 10000 nM |
